Source: ChEMBL document CHEMBL1201862, “PubChem BioAssay data set” (2004)
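Five compound concentrations were applied to cells in 96-well plates for 48 hours; endpoints were derived by simple linear interpolation of the resulting dose-response curve. Abbreviation: GI50, concentration required for 50% inhibition of growth.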 Activity calls are given as the source filed them. Cut-off read from the data, not from the text of the source: active = GI50 up to about 1.1 µM and inactive = higher.

How the values were obtained:
Test in all cases: NCI tumour cell line growth inhibition, 48 h
[1] = system: OVCAR-5
[2] = system: TK-10
[3] = system: CAKI-1
[4] = system: NCI/ADR-RES
[5] = system: A549
[6] = system: EKVX
[7] = system: NCI-H522
[8] = system: M14
[9] = system: HCT-15
[10] = system: SK-MEL-2
[11] = system: OVCAR-4
[12] = system: MDA-MB-231
[13] = system: COLO 205
[14] = system: SK-MEL-5
[15] = system: SNB-19
[16] = system: PC-3
[17] = system: UO-31
[18] = system: MDA-MB-435
[19] = system: UACC-62
[20] = system: SF-268
[21] = system: HOP-62
[22] = system: NCI-H226
[23] = system: U-251
[24] = system: NCI-H23
[25] = system: T47D
[26] = system: Hs-578T
[27] = system: OVCAR-8
[28] = system: LOX IMVI
[29] = system: ACHN
[30] = system: SN12C
[31] = system: MDA-N
[32] = system: 786-0
[33] = system: SF-539
[34] = system: HCT-116
[35] = system: MOLT-4
[36] = system: IGROV-1
[37] = system: KM12
[38] = system: K562
[39] = system: SNB-75
[40] = system: SW-620
[41] = system: UACC-257
[42] = system: SK-MEL-28
[43] = system: RXF 393
[44] = system: HCC 2998
[45] = system: A498
[46] = system: RPMI-8226
[47] = system: CCRF-CEM
[48] = system: OVCAR-3
[49] = system: BT-549
[50] = system: HT-29
[51] = system: HOP-92
[52] = system: DU-145
[53] = system: HL-60
[54] = system: MCF7
[55] = system: SK-OV-3
[56] = system: Malme-3M
[57] = system: SF-295
[58] = system: NCI-H460
[59] = system: SR

CC(=O)NS(=O)(=O)c1ccc(NCc2cccc3c(=O)c4ccc(Cl)cc4oc23)cc1
GI50 [1]: > 100 µM (inactive) | GI50 [2]: > 63.4 µM (inactive) | GI50 [3]: 20.5 µM (inactive) | GI50 [4]: 31.6 µM (inactive) | GI50 [5]: > 80.9 µM (inactive) | GI50 [6]: 38.3 µM (inactive) | GI50 [7]: 27.4 µM (inactive) | GI50 [8]: 41.1 µM (inactive) | GI50 [9]: 7.76 µM | GI50 [10]: 46 µM (inactive) | GI50 [11]: > 54.5 µM (inactive) | GI50 [12]: > 59 µM (inactive) | GI50 [13]: > 57.7 µM (inactive) | GI50 [14]: 40.1 µM (inactive) | GI50 [15]: 57.3 µM (inactive) | GI50 [16]: 38.5 µM (inactive) | GI50 [17]: 25.4 µM (inactive) | GI50 [18]: 38.3 µM (inactive) | GI50 [19]: 48 µM (inactive) | GI50 [20]: 30.8 µM (inactive) | GI50 [21]: 39.1 µM (inactive) | GI50 [22]: 93.3 µM (inactive) | GI50 [23]: 31.6 µM (inactive) | GI50 [24]: 33 µM (inactive) | GI50 [25]: > 92.3 µM (inactive) | GI50 [26]: 25.4 µM (inactive) | GI50 [27]: 16.9 µM (inactive) | GI50 [28]: > 33.2 µM (inactive) | GI50 [29]: 38.5 µM (inactive) | GI50 [30]: > 65.6 µM (inactive) | GI50 [31]: 42.6 µM (inactive) | GI50 [32]: > 55.8 µM (inactive) | GI50 [33]: 17.1 µM (inactive) | GI50 [34]: > 26.7 µM (inactive) | GI50 [35]: 11.5 µM (inactive) | GI50 [36]: 24.8 µM (inactive) | GI50 [37]: 20.5 µM (inactive) | GI50 [38]: 6.14 µM (inactive) | GI50 [39]: 64 µM (inactive) | GI50 [40]: 34 µM (inactive) | GI50 [41]: > 56.6 µM (inactive) | GI50 [42]: 73.8 µM (inactive) | GI50 [43]: 20.4 µM (inactive) | GI50 [44]: 38.5 µM (inactive) | GI50 [45]: 41.9 µM (inactive) | GI50 [46]: 11.2 µM (inactive) | GI50 [47]: 4.2 µM (inactive) | GI50 [48]: 44.6 µM (inactive) | GI50 [49]: > 54.2 µM (inactive) | GI50 [50]: 31.8 µM (inactive) | GI50 [51]: 16.6 µM (inactive) | GI50 [52]: 61 µM (inactive) | GI50 [53]: 1.44 µM (inactive) | GI50 [54]: 8.3 µM (inactive) | GI50 [55]: > 53.8 µM (inactive) | GI50 [56]: 26.4 µM (inactive) | GI50 [57]: 51.4 µM (inactive) | GI50 [58]: 19.7 µM (inactive)

O=[N+]([O-])c1ccc(Cl)cc1N/N=C/c1ccnc2ccccc12
GI50 [2]: > 100 µM (inactive) | GI50 [3]: > 100 µM (inactive) | GI50 [4]: 53.3 µM (inactive) | GI50 [5]: > 100 µM (inactive) | GI50 [6]: 22.8 µM (inactive) | GI50 [7]: > 100 µM (inactive) | GI50 [8]: > 100 µM (inactive) | GI50 [9]: > 100 µM | GI50 [11]: > 100 µM (inactive) | GI50 [12]: > 100 µM (inactive) | GI50 [13]: > 100 µM (inactive) | GI50 [14]: > 100 µM (inactive) | GI50 [15]: > 100 µM (inactive) | GI50 [16]: > 100 µM (inactive) | GI50 [17]: > 100 µM (inactive) | GI50 [18]: 97.3 µM (inactive) | GI50 [19]: > 100 µM (inactive) | GI50 [20]: > 100 µM (inactive) | GI50 [21]: > 100 µM (inactive) | GI50 [22]: > 100 µM (inactive) | GI50 [23]: 17.5 µM (inactive) | GI50 [24]: > 100 µM (inactive) | GI50 [25]: > 100 µM (inactive) | GI50 [26]: 52.4 µM (inactive) | GI50 [27]: 46.5 µM (inactive) | GI50 [29]: > 100 µM (inactive) | GI50 [30]: > 100 µM (inactive) | GI50 [31]: > 100 µM (inactive) | GI50 [32]: > 100 µM (inactive) | GI50 [59]: > 100 µM (inactive) | GI50 [33]: 21.9 µM (inactive) | GI50 [34]: 42.9 µM (inactive) | GI50 [35]: > 100 µM (inactive) | GI50 [36]: > 100 µM (inactive) | GI50 [37]: > 100 µM (inactive) | GI50 [38]: > 100 µM (inactive) | GI50 [39]: 31.1 µM (inactive) | GI50 [40]: > 100 µM (inactive) | GI50 [41]: > 100 µM (inactive) | GI50 [42]: > 100 µM (inactive) | GI50 [43]: 36.9 µM (inactive) | GI50 [44]: > 100 µM (inactive) | GI50 [46]: > 100 µM (inactive) | GI50 [47]: > 100 µM (inactive) | GI50 [48]: > 100 µM (inactive) | GI50 [49]: > 100 µM (inactive) | GI50 [50]: > 100 µM (inactive) | GI50 [52]: > 100 µM (inactive) | GI50 [53]: > 100 µM (inactive) | GI50 [54]: > 100 µM (inactive) | GI50 [55]: > 100 µM (inactive) | GI50 [57]: > 100 µM (inactive) | GI50 [58]: > 100 µM (inactive)

COc1cc(/C=C2\N=C(c3ccccc3)N(c3ccc4c(c3)Sc3cc(N5C(=O)/C(=C/c6cc(OC)c(OC)c(OC)c6)N=C5c5ccccc5)ccc3N4)C2=O)cc(OC)c1OC
GI50 [1]: 20.6 µM (inactive) | GI50 [2]: 16.9 µM (inactive) | GI50 [3]: 18.5 µM (inactive) | GI50 [4]: 31 µM (inactive) | GI50 [5]: 37.6 µM (inactive) | GI50 [6]: 22.8 µM (inactive) | GI50 [7]: 17.1 µM (inactive) | GI50 [8]: 31.6 µM (inactive) | GI50 [9]: > 100 µM | GI50 [10]: 18.5 µM (inactive) | GI50 [11]: 18.9 µM (inactive) | GI50 [12]: 25.7 µM (inactive) | GI50 [13]: 20.9 µM (inactive) | GI50 [14]: 16.5 µM (inactive) | GI50 [15]: 21.2 µM (inactive) | GI50 [16]: 19.6 µM (inactive) | GI50 [17]: 31.3 µM (inactive) | GI50 [18]: 18 µM (inactive) | GI50 [19]: 16.9 µM (inactive) | GI50 [20]: 18.4 µM (inactive) | GI50 [21]: 25.5 µM (inactive) | GI50 [23]: 21 µM (inactive) | GI50 [24]: 19.3 µM (inactive) | GI50 [25]: 25.2 µM (inactive) | GI50 [26]: 21.8 µM (inactive) | GI50 [27]: 18.5 µM (inactive) | GI50 [28]: 22.4 µM (inactive) | GI50 [29]: 19 µM (inactive) | GI50 [30]: 25.9 µM (inactive) | GI50 [31]: 19.8 µM (inactive) | GI50 [32]: 20.9 µM (inactive) | GI50 [34]: 42 µM (inactive) | GI50 [35]: 37.2 µM (inactive) | GI50 [36]: 17 µM (inactive) | GI50 [37]: > 100 µM (inactive) | GI50 [38]: 21 µM (inactive) | GI50 [39]: 24.7 µM (inactive) | GI50 [40]: 42.7 µM (inactive) | GI50 [41]: 16.9 µM (inactive) | GI50 [42]: 40.6 µM (inactive) | GI50 [43]: 20.7 µM (inactive) | GI50 [44]: 21.2 µM (inactive) | GI50 [45]: 20.7 µM (inactive) | GI50 [46]: 27.4 µM (inactive) | GI50 [47]: 22 µM (inactive) | GI50 [48]: 20.8 µM (inactive) | GI50 [49]: 23.4 µM (inactive) | GI50 [50]: > 100 µM (inactive) | GI50 [51]: 18.8 µM (inactive) | GI50 [52]: 54.3 µM (inactive) | GI50 [53]: 26.9 µM (inactive) | GI50 [54]: 21 µM (inactive) | GI50 [55]: 21.3 µM (inactive) | GI50 [56]: 19.5 µM (inactive) | GI50 [57]: 22.9 µM (inactive) | GI50 [58]: 31.3 µM (inactive)
